Results taken from US9403756B2, “N-phenyl anthranilic acid derivatives and uses thereof” (Ramot at Tel-Aviv University Ltd., priority 2007, dated 2016).

Legend:
homomeric KCNQ3 channels = biological target: T1, homomeric KCNQ3 channels (Homo sapiens, UniProt O43525); test: Homomeric KCNQ3 channels; type: cell-based; details: 25 μM; very small currents through homomeric KCNQ3
T1 construct: expressed in transfected cells
Experimental: FIG. 8 presents a bar-graph comparing the potentiating effect of 25 μM of Compound NH29 on various KCNQ subunits and mutants, wherein the opener effect is expressed as percent of the control current in the absence of the opener;
FIG. 8 presents a bar-graph comparing the potentiating effect of 25 μM of Compound NH29 on various KCNQ subunits and mutants, wherein the opener effect is expressed as percent of the control current in the absence of the opener.

KCNQ2 mutant R201A = biological target: T2, KCNQ2 mutant R201A (Homo sapiens, UniProt O43526, R201A); test: KCNQ2 S4 mutant R201A in CHO cells; type: cell-based; details: 25 μM NH29 (25 M [sic])
T2 construct: expressed in transfected cells; host or cells: CHO cells
Excerpt: (§1) FIGS. 12A-F present the potentiating effect of NH29, an exemplary channel opener compound according to embodiments of the present invention, on selected KCNQ2 mutants. Shown are bar diagrams comparing the potentiating effect of NH29 on native KCNQ2 and KCNQ2 mutants, wherein the mutated amino acids are located at the S1-S2 helix region (FIG. 12A) or S4 helix region (FIG. 12D) and wherein the opener effect is expressed as percent of the control current in the absence of the opener. For comparison, marked as a green line, is the observed current increase of native KCNQ2 by NH29. FIGS. 12B 12C, 12E and 12F present representative traces recorded from CHO cell transfected with the KCNQ2 mutant S122A, S121A, L206C and R201A respectively, before and after external application of 25 μM of NH29 and wherein the membrane potential was stepped from −90 mV holding potential to −40 mV for 1.5 seconds pulse duration.
(§2) Voltage-clamp recordings in CHO cells were performed, using the whole-cell configuration of the patch-clamp technique. Signals were amplified using an Axopatch 200B patch-clamp amplifier (Molecular Devices, Sunnyvale, Calif.), sampled at 2 kHz and filtered at 800 Hz via a 4-pole Bessel low pass filter. […] Series resistances (3-13 MΩ) were compensated (75-90%) and periodically monitored.

Kv 2.1 = biological target: T3, Kv 2.1 (Homo sapiens, UniProt Q14721); test: Kv channel selectivity, Xenopus oocytes: Kv2.1; type: cell-based; details: 25 μM, +30 mV
T3 construct: expressed in transfected cells; host or cells: Xenopus oocytes
Experimental: (§3) Voltage-clamp measurements in Xenopus oocytes were performed as previously described.
(§4) The selectivity of NH29 on other relevant Kv channels expressed in Xenopus oocytes was also studied, and the results are summarized in Table 3 below. The specificity of NH29 at 25 μM and 50 μM towards various Kv channels was tested in Xenopus oocytes, except for Kv1.2 which was checked in transfected CHO cells. The current amplitude of the various Kv channels was tested at the indicated voltages and the effect of the drugs was expressed as fold of the control amplitude measured under the same conditions in the absence of the drug. The data in Table 3 are expressed as mean±SEM of 5-7 separate experiments.

Kv 7.4 = biological target: T4, Kv 7.4 (Homo sapiens, UniProt P56696); test: Kv channel selectivity, Xenopus oocytes: Kv7.4; type: cell-based; details: −30 mV
T4 construct: expressed in transfected cells; host or cells: Xenopus oocytes
Experimental: as §3, §4

Kv 4.3 = biological target: T5, Kv 4.3 (Homo sapiens, UniProt Q9UK17); test: Kv channel selectivity, Xenopus oocytes: Kv4.3; type: cell-based; details: 25 μM, +30 mV
T5 construct: expressed in transfected cells; host or cells: Xenopus oocytes
Experimental: as §3, §4

KCNQ2 mutant R214W = biological target: T6, KCNQ2 mutant R214W (Homo sapiens, UniProt O43526, R214W); test: KCNQ2 S4 mutant R214W; type: cell-based; details: NH29; to a lesser extent
T6 construct: expressed in transfected cells; host or cells: CHO cells
Excerpt: as §1, §2

KCNQ2 mutant L197G = biological target: T7, KCNQ2 mutant L197G (Homo sapiens, UniProt O43526, L197G); test: KCNQ2 S4 mutant L197G; type: cell-based; details: 25 μM NH29 (25 M [sic])
T7 construct: expressed in transfected cells
Excerpt: as §1, §2

DRG neurons = test: Current-clamp recordings in cultured DRG neurons; type: cell-based, rat; details: 25 μM NH29; 75-250 pA for 400 ms; control 8.7±0.8; n=12
Kv1.2 = biological target: T8, Kv1.2 (Homo sapiens, UniProt P16389); test: Kv channel selectivity, transfected CHO cells: Kv1.2; type: cell-based; details: for Fold current amplitude: 0 mV, transfected CHO cells
T8 construct: expressed in transfected cells; host or cells: CHO cells
Experimental: Voltage-clamp recordings in CHO cells were performed, using the whole-cell configuration of the patch-clamp technique. Signals were amplified using an Axopatch 200B patch-clamp amplifier (Molecular Devices, Sunnyvale, Calif.), sampled at 2 kHz and filtered at 800 Hz via a 4-pole Bessel low pass filter. Data were acquired using pClamp 9.2 software (Molecular Devices) and an IBM compatible Pentium IV computer in conjunction with a DigiData 1322A interface (Molecular Devices). The patch pipettes were pulled from borosilicate glass (Warner Instrument Corp, USA) with a resistance of 2-5 MΩ. For K^+ current recordings in CHO cells, the intracellular pipette solution contained (in mM): 130 KCl, 1 MgCl2, 5 K2ATP, 5 EGTA, 10 HEPES, adjusted with KOH to pH 7.4 (290 mOsm). The extracellular solution contained (in mM): 140 NaCl, 4 KCl, 1.8 CaCl2, 1.2 MgCl2, 11 glucose, 5.5 HEPES, adjusted with NaOH to pH 7.4 (310 mOsm). Series resistances (3-13 MΩ) were compensated (75-90%) and periodically monitored.
as §4

Kv7.3 mutant A315T = biological target: T9, Kv7.3 mutant A315T (Homo sapiens, UniProt O43525, A315T); test: Activation of Kv7.3 mutant A315T; type: cell-based
T9 construct: expressed in transfected cells
Excerpt: Among the Kv7 channel family, NH29 appeared to act as an opener of Kv7.2 but not of Kv7.1 and Kv7.4.

T8 sequence (P16389 whole entry): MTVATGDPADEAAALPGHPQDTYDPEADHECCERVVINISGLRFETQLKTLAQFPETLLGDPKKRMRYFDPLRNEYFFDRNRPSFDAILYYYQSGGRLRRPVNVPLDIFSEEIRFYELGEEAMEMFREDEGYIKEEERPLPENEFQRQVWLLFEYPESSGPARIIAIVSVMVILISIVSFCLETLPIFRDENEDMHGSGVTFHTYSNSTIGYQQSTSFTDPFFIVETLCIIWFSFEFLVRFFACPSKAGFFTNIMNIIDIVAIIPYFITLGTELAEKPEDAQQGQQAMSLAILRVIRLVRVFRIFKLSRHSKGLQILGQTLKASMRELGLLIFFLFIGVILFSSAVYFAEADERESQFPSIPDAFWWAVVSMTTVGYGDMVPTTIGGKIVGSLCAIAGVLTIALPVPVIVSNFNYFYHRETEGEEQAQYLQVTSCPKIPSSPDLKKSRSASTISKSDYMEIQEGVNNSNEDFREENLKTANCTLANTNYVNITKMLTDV
T4 sequence (P56696 whole entry): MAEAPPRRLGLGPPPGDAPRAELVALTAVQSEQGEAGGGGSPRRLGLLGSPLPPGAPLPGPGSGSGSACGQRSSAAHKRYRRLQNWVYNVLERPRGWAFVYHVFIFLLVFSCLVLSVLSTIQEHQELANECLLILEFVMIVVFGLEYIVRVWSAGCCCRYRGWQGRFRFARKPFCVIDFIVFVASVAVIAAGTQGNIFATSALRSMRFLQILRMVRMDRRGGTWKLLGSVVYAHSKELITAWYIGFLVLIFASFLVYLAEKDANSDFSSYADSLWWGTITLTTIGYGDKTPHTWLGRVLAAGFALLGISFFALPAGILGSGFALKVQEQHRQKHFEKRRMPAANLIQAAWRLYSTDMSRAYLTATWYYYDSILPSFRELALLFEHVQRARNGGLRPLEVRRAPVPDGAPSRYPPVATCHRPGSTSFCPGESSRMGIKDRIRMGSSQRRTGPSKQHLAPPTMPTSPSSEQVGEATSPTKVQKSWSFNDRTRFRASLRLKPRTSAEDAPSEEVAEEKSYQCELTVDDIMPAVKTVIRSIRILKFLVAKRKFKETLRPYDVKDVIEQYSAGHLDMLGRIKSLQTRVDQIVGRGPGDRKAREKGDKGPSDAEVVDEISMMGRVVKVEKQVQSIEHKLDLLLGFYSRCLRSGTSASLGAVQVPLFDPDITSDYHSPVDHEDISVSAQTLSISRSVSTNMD
T2 sequence (O43526 whole entry R201A): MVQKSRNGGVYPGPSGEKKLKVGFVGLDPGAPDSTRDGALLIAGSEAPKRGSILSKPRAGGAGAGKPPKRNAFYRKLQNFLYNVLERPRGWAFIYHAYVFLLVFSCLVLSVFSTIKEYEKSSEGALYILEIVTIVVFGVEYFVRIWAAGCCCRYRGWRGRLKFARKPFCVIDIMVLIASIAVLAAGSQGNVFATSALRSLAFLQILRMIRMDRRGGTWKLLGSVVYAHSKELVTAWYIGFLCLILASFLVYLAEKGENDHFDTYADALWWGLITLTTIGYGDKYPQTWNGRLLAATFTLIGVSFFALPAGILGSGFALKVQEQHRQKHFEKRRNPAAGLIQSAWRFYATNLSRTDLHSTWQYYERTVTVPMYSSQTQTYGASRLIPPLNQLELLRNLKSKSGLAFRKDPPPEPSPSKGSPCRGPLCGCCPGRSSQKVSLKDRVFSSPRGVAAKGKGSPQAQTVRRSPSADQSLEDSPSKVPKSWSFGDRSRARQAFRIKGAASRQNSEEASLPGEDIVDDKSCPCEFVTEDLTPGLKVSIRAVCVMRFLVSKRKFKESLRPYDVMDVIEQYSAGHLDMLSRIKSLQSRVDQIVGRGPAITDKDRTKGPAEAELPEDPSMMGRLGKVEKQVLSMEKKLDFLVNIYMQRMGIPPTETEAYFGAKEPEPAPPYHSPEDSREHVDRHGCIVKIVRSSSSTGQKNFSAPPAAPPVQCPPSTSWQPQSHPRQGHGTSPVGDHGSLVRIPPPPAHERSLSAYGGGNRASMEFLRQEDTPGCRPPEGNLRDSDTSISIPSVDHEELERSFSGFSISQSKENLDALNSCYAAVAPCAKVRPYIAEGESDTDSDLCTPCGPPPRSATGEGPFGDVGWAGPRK
T5 sequence (Q9UK17 whole entry): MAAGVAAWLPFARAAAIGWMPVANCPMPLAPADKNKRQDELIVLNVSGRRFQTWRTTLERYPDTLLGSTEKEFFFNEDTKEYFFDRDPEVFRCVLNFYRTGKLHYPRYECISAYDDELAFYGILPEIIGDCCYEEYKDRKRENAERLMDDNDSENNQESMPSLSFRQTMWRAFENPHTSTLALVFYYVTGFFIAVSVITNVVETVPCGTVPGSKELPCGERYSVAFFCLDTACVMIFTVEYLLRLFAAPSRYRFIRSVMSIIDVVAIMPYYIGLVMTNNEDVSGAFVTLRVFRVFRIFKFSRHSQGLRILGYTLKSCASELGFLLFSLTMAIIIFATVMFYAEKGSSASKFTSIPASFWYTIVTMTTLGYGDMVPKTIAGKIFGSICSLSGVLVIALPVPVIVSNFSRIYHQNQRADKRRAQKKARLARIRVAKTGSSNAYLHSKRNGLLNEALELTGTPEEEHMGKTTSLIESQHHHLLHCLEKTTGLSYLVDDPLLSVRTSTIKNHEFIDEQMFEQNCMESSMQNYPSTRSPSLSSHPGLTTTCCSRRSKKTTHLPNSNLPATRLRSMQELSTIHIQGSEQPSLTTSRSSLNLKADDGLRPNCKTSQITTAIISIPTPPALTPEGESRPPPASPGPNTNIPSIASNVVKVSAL
T6 sequence (O43526 whole entry R214W): as the sequence (O43526 whole entry R201A) above, with A201R, R214W counted along it
T7 sequence (O43526 whole entry L197G): as the sequence (O43526 whole entry R201A) above, with L197G, A201R counted along it
T1 sequence (O43525 whole entry): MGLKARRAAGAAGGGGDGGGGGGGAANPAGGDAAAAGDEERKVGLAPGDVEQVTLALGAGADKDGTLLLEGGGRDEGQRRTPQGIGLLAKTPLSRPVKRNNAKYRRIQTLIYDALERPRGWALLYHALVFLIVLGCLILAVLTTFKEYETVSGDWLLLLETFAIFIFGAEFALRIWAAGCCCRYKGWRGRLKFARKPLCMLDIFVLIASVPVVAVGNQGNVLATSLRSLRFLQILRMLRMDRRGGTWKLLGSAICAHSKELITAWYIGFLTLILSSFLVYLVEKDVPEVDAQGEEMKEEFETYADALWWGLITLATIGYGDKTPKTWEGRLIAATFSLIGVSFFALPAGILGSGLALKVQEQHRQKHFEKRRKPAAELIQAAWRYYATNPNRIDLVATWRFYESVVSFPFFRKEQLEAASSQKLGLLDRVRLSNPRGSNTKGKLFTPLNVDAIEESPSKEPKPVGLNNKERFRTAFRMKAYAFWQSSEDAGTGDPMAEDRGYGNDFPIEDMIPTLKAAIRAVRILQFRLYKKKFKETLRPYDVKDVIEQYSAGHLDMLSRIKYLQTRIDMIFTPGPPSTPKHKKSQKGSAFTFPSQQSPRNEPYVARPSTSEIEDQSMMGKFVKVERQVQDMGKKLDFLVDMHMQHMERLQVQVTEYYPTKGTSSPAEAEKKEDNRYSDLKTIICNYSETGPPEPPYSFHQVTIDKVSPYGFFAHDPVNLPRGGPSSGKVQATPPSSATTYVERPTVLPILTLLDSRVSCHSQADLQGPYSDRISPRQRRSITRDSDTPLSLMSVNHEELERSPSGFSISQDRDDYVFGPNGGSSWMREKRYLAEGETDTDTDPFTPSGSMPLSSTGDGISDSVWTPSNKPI
T3 sequence (Q14721 whole entry): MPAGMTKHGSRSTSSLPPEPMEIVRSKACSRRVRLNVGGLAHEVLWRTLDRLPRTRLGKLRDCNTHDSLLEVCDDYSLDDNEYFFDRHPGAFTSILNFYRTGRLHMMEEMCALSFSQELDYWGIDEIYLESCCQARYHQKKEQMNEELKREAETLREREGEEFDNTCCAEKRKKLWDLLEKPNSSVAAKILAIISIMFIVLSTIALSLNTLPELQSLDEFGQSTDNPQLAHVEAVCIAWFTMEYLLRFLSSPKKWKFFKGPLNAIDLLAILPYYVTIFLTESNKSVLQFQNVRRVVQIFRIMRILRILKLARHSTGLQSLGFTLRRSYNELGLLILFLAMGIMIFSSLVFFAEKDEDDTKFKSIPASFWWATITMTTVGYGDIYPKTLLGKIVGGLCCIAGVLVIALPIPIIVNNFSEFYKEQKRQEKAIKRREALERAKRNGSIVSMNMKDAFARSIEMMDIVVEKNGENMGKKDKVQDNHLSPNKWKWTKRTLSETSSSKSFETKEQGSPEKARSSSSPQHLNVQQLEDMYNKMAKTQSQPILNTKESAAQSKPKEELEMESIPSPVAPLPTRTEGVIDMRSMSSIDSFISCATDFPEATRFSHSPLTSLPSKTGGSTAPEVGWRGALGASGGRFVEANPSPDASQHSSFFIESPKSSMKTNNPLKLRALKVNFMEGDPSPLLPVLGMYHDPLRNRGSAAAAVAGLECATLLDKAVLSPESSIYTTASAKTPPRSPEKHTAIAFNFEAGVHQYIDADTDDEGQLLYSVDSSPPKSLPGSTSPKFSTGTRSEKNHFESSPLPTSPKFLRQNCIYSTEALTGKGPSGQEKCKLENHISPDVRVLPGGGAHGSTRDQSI
T9 sequence (O43525 whole entry A315T): as the sequence (O43525 whole entry) above, with A315T counted along it

O=C(Cc1cc([N+](=O)[O-])cc([N+](=O)[O-])c1Nc1c(Cl)cc([N+](=O)[O-])cc1Cl)NCCO [NH29]
opening activity on homomeric KCNQ3 channels (homomeric KCNQ3 channels): no opening activity was detected
fold enhancement of current (KCNQ2 mutant R201A): 1.2 fold
Fold current amplitude (Kv 2.1): 1.2 ± 0.09 fold
Fold current amplitude (Kv 7.4; 25 μM): 1.0 ± 0.12 fold
Fold current amplitude (Kv 7.4; 50 μM): 0.9 ± 0.04 fold
Fold current amplitude (Kv 4.3): 1.1 ± 0.04 fold
sensitivity to the activating effect compared to wild-type Kv7.2 (KCNQ2 mutant R214W): significantly less sensitive
fold enhancement of current (KCNQ2 mutant L197G): 1.5 fold
number of evoked action potentials (DRG neurons): 0.9±0.1
Fold current amplitude (Kv1.2; 25 μM): 0.9 ± 0.01 fold
Fold current amplitude (Kv1.2; 50 μM): 0.66 ± 0.03 fold
inhibition at 50 µM (Kv1.2; CHO, 50 μM, read-out: inhibition of Kv1.2 current): 34%
activation of Kv7.3 mutant A315T (Kv7.3 mutant A315T): could also activate Kv7.3
